Source: US10669240B2, “5-substituted indazole-3-carboxamides and preparation and use thereof” (Samumed, LLC, priority 2014, dated 2020)
Where two headings read alike, the source gives them in different places.

Tests used:
[1] = system: Wnt activity (Wnt-responsive SP5 promoter luciferase reporter in SW480 cells); assay: Wnt activity reporter assay: SW480 cells with SP5 promoter-driven firefly luciferase; assay type: cell-based; conditions: 24 h after compound addition, read-out: Wnt inhibition
Excerpt: The above synthesized compounds were screened using the assay procedure for Wnt activity described below.
Reporter cell lines were generated by stably transducing cells of cancer cell lines (e.g., colon cancer) with a lentiviral construct that include a Wnt-responsive promoter driving expression of the firefly luciferase gene.
Lentiviral constructs were made in which the SP5 promoter, a promoter having eight TCF/LEF binding sites derived from the SP5 promoter, was linked upstream of the firefly luciferase gene. The lentiviral constructs included a hygromycin resistance gene as a selectable marker. The SP5 promoter construct was used to transduce SW480 cells, a colon cancer cell line having a mutated APC gene that generates a truncated APC protein, leading to de-regulated accumulation of β-catenin.
Cultured SW480 cells bearing a reporter construct were distributed at approximately 10,000 cells per well into 384 well multiwell plates. Compounds were then added to the wells in half-log dilutions using a three micromolar top concentration. A series of control wells for each cell type received only buffer and compound solvent. Twenty-four hours after the addition of compound, reporter activity for luciferases was assayed, for example, by addition of the BrightGlo luminescence reagent (Promega) and the Victor3 plate reader (Perkin Elmer). Readings were normalized to DMSO only treated cells, and normalized activities were then used for the IC50 calculations.

DYRK1A = DYRK1A (Homo sapiens (Human), UniProt Q13627); assay: DYRK1A activity Tau assay: pSer396 Tau in SH-SY5Y cells by ELISA / western blot; assay type: cell-based; conditions: overnight (16-18 h) exposure

5-(5-(Piperidin-1-ylmethyl)pyridin-3-yl)-N-(2-(pyrrolidin-1-yl)pyridin-4-yl)-1H-indazole-3-carboxamide [Compound 100]
IC50 [1]: 2600 nM
EC50 (DYRK1A): 2 nM

CN1CCC(NC(=O)c2n[nH]c3ccc(-c4cccnc4)cc23)CC1 [Compound 1, N-(1-Methylpiperidin-4-yl)-5-(pyridin-3-yl)-1H-indazole-3-carboxamide]
IC50 ([1]; Homo sapiens): 1300 nM
EC50 (DYRK1A): 65 nM

O=C(NC1CCNCC1)c1n[nH]c2ccc(-c3cccnc3)cc12 [Compound 3, N-(Piperidin-4-yl)-5-(pyridin-3-yl)-1H-indazole-3-carboxamide]
IC50 ([1]; Homo sapiens): 6440 nM
EC50 (DYRK1A): 28 nM

O=C(NC1CCCCC1)c1n[nH]c2ccc(-c3cccnc3)cc12 [Compound 4, N-Cyclohexyl-5-(pyridin-3-yl)-1H-indazole-3-carboxamide]
IC50 ([1]; Homo sapiens): 4460 nM
EC50 (DYRK1A): 35 nM

O=C(NC1CCC1)c1n[nH]c2ccc(-c3cccnc3)cc12 [Compound 5, N-Cyclobutyl-5-(pyridin-3-yl)-1H-indazole-3-carboxamide]
IC50 ([1]; Homo sapiens): 11900 nM
EC50 (DYRK1A): 18 nM

O=C(NC1CC1)c1n[nH]c2ccc(-c3cccnc3)cc12 [Compound 6, N-Cyclopropyl-5-(pyridin-3-yl)-1H-indazole-3-carboxamide]
IC50 ([1]; Homo sapiens): 5530 nM
EC50 (DYRK1A): 22 nM

CN1CCC(NC(=O)c2n[nH]c3ccc(-c4cncc(CN5CCC5)c4)cc23)CC1 [Compound 8, 5-(5-(Azetidin-1-ylmethyl)pyridin-3-yl)-N-(1-methylpiperidin-4-yl)-1H-indazole-3-carboxamide]
IC50 ([1]; Homo sapiens): 6290 nM
EC50 (DYRK1A): 53 nM

O=C(NC1CC1)c1n[nH]c2ccc(-c3cncc(CN4CCCCC4)c3)cc12 [Compound 9, N-Cyclopropyl-5-(5-(piperidin-1-ylmethyl)pyridin-3-yl)-1H-indazole-3-carboxamide]
IC50 ([1]; Homo sapiens): 2910 nM
EC50 (DYRK1A): 2 nM

O=C(NC1CC1)c1n[nH]c2ccc(-c3cc(F)cc(CN4CCCCC4)c3)cc12 [Compound 11, N-Cyclopropyl-5-(3-fluoro-5-(piperidin-1-ylmethyl)phenyl)-1H-indazole-3-carboxamide]
IC50 ([1]; Homo sapiens): 7950 nM
EC50 (DYRK1A): 36 nM

CN1CCC(NC(=O)c2n[nH]c3ccc(-c4ccccc4F)cc23)CC1 [Compound 16, 5-(2-Fluorophenyl)-N-(1-methylpiperidin-4-yl)-1H-indazole-3-carboxamide]
IC50 ([1]; Homo sapiens): 14600 nM
EC50 (DYRK1A): 335 nM

CN1CCC(NC(=O)c2n[nH]c3ccc(-c4ccc(F)c(F)c4)cc23)CC1 [Compound 19, 5-(3,4-Difluorophenyl)-N-(1-methylpiperidin-4-yl)-1H-indazole-3-carboxamide]
IC50 ([1]; Homo sapiens): 6800 nM
EC50 (DYRK1A): 848 nM

CN1CCC(NC(=O)c2n[nH]c3ccc(-c4cc(F)cc(F)c4)cc23)CC1 [Compound 21, 5-(3,5-Difluorophenyl)-N-(1-methylpiperidin-4-yl)-1H-indazole-3-carboxamide]
IC50 ([1]; Homo sapiens): 1310 nM
EC50 (DYRK1A): 744 nM

O=C(NCc1cccc(F)c1)c1n[nH]c2ccc(-c3cncc(CN4CCCCC4)c3)cc12 [Compound 27, N-(3-Fluorobenzyl)-5-(5-(piperidin-1-ylmethyl)pyridin-3-yl)-1H-indazole-3-carboxamide]
IC50 ([1]; Homo sapiens): 1760 nM
EC50 (DYRK1A): 2 nM

O=C(NCc1cc(F)cc(F)c1)c1n[nH]c2ccc(-c3cncc(CN4CCCCC4)c3)cc12 [Compound 28, N-(3,5-Difluorobenzyl)-5-(5-(piperidin-1-ylmethyl)pyridin-3-yl)-1H-indazole-3-carboxamide]
IC50 ([1]; Homo sapiens): 3100 nM
EC50 (DYRK1A): 2 nM

O=C(NCc1ccccc1)c1n[nH]c2ccc(-c3cc(F)cc(CN4CCCCC4)c3)cc12 [Compound 29, N-Benzyl-5-(3-fluoro-5-(piperidin-1-ylmethyl)phenyl)-1H-indazole-3-carboxamide]
IC50 ([1]; Homo sapiens): 3470 nM
EC50 (DYRK1A): 117 nM

O=C(NC1(c2ccccc2)CC1)c1n[nH]c2ccc(-c3cncc(CN4CCC4)c3)cc12 [Compound 33, 5-(5-(Azetidin-1-ylmethyl)pyridin-3-yl)-N-(1-phenylcyclopropyl)-1H-indazole-3-carboxamide]
IC50 ([1]; Homo sapiens): 6700 nM
EC50 (DYRK1A): 63 nM

O=C(NC1(c2ccccc2)CC1)c1n[nH]c2ccc(-c3cncc(CN4CCC(F)(F)C4)c3)cc12 [Compound 35, 5-(5-((3,3-Difluoropyrrolidin-1-yl)methyl)pyridin-3-yl)-N-(1-phenylcyclopropyl)-1H-indazole-3-carboxamide]
IC50 ([1]; Homo sapiens): 6390 nM
EC50 (DYRK1A): 85 nM

CN1CCN(c2ccc(NC(=O)c3n[nH]c4ccc(-c5cncc(NC(=O)c6ccc(F)cc6F)c5)cc34)cn2)CC1 [Compound 47, 5-(5-(2,4-Difluorobenzamido)pyridin-3-yl)-N-(6-(4-methylpiperazin-1-yl)pyridin-3-yl)-1H-indazole-3-carboxamide]
IC50 ([1]; Homo sapiens): 333 nM

CN1CCN(c2ccc(NC(=O)c3n[nH]c4ccc(-c5cncc(NC(=O)c6c(F)cccc6F)c5)cc34)cn2)CC1 [Compound 49, 5-(5-(2,6-Difluorobenzamido)pyridin-3-yl)-N-(6-(4-methylpiperazin-1-yl)pyridin-3-yl)-1H-indazole-3-carboxamide]
IC50 ([1]; Homo sapiens): 226 nM

O=C(Nc1cccnc1)c1n[nH]c2ccc(-c3cncc(CN4CC(CO)(CO)C4)c3)cc12 [Compound 50, 5-(5-((3,3-Bis(hydroxymethyl)azetidin-1-yl)methyl)pyridin-3-yl)-N-(pyridin-3-yl)-1H-indazole-3-carboxamide]
IC50 ([1]; Homo sapiens): 10000 nM

[2H]C([2H])([2H])Oc1ccc(NC(=O)c2n[nH]c3ccc(-c4cncc(CN5CCCCC5)c4)cc23)cn1 [Compound 68, N-(6-(Methoxy-d3)pyridin-3-yl)-5-(5-(piperidin-1-ylmethyl)pyridin-3-yl)-1H-indazole-3-carboxamide]
IC50 ([1]; Homo sapiens): 57 nM

[2H]C([2H])([2H])Oc1ccc(NC(=O)c2n[nH]c3ccc(-c4cncc(C([2H])([2H])N5CCCCC5)c4)cc23)cn1 [Compound 69, N-(6-(methoxy-d3)pyridin-3-yl)-5-(5-(piperidin-1-ylmethyl-d2)pyridin-3-yl)-1H-indazole-3-carboxamide]
IC50 ([1]; Homo sapiens): 45 nM

O=C(Nc1ccc(OC(CO)CO)nc1)c1n[nH]c2ccc(-c3cncc(CN4CCCCC4)c3)cc12 [Compound 70, N-(6-((1,3-Dihydroxypropan-2-yl)oxy)pyridin-3-yl)-5-(5-(piperidin-1-ylmethyl)pyridin-3-yl)-1H-indazole-3-carboxamide]
IC50 ([1]; Homo sapiens): 500 nM

O=C(Nc1ccc(N2CC(CO)(CO)C2)nc1)c1n[nH]c2ccc(-c3cncc(CN4CCCCC4)c3)cc12 [Compound 72, N-(6-(3,3-Bis(hydroxymethyl)azetidin-1-yl)pyridin-3-yl)-5-(5-(piperidin-1-ylmethyl)pyridin-3-yl)-1H-indazole-3-carboxamide]
IC50 ([1]; Homo sapiens): 1500 nM

O=C(Nc1cccnc1)c1n[nH]c2ccc(-c3cncc(CN4CCS(=O)(=O)CC4)c3)cc12 [Compound 86, 5-(5-((1,1-Dioxidothiomorpholino)methyl)pyridin-3-yl)-N-(pyridin-3-yl)-1H-indazole-3-carboxamide]
IC50 ([1]; Homo sapiens): 210 nM

O=C(Nc1cnccn1)c1n[nH]c2ccc(-c3cncc(CN4CCCCCC4)c3)cc12 [Compound 88, 5-(5-(Azepan-1-ylmethyl)pyridin-3-yl)-N-(pyrazin-2-yl)-1H-indazole-3-carboxamide]
IC50 ([1]; Homo sapiens): 430 nM

CC(C)OCCCNC(=O)c1n[nH]c2ccc(-c3cncc(F)c3)cc12 [Compound 1263, 5-(5-Fluoropyridin-3-yl)-N-(3-isopropoxypropyl)-1H-indazole-3-carboxamide]
IC50 ([1]; Homo sapiens): 1400 nM
